Measured values as given in patent US20250154525A1, “PLANT VIRUS MOVEMENT PROTEINS AND METHODS OF USING SAME” (Molecular Transfer, Inc., priority 2016, published 2025).

What was measured:
[1] = test system: Jurkat Cells; test: GFP plasmid transfection with DOTMA/DOPE plus surface ligand peptide, fluorescent plate reader (Example 1); type: cell-based; details: DOTMA/DOPE + peptide linked to R12 or K16; EF1Alpha eGFP plasmid; 42 hours
Experimental: (§1) Cells were plated to so that on the day of transfection the cells were 70% confluent in 96 well tissue culture plates. A DOMTA/DOPE Lipid solution (1:1 molar ratio) at 2 mg/mL in water were mixed with an equal volume cell surface ligand containing adhesion peptide, the plant virus movement protein, or peptide derived therefrom, that had the nucleic acid binding moiety RRRRRRRRRRRR (SEQ ID NO:109) or KKKKKKKKKKKKKKKK (SEQ ID NO: 102) covalently linked to the N-terminus, or C-terminus of each peptide during peptide synthesis. Peptides were at 2 mg/mL in water. The DOTMA/DOPE and the solution containing the cell surface ligand containing adhesion peptide, the plant virus movement protein, or peptide derived therefrom, surface ligand peptide the was diluted 1 to 1 (v/v) in water. DOMTA/DOPE/PEPTIDE solutions were added to 0.1 mL of a plasmid DNA solution (EF1Alpha eGFP plasmid) at 10 μg/mL in OptiMEM.
(§2) All solutions were at room temperature. A volume of 0.2 mL of a 10 μg/mL solution of DNA was aliquoted into each well of a non-tissue cultured treated plate. 1-12 μL of transfection reagents were added to DNA solutions respectively. The transfection reagent and DNA solution was mixed by pipetting up and down twice. Transfection complexes were formed for 10 minutes. After 10 minutes, 0.01 or 0.02 mL of the transfection complex was added to cells. HuVEC, HeLa, human adult keratinocytes, human primary adult fibroblast, and A549 cells all respectively received 0.01 mL of the transfection complex. Human skeletal muscle cells, mouse C2C12 cells, and Jurkat, cells received 0.02 mL of the transfection complex. Cells were incubated for 42 hours at 37° C. at 5% CO2. Plates were read on a fluorescent plate reader. Cells were also examined visually under a microscope to assess the extent of transfection (in terms of the percent of cells transfected) with a fluorescent microscope. Other modes of analysis, for example quantification with B-galactocidase or luciferase reports plasmids can also be used.
(§3) Surface ligand that caused increase expression of GFP over the lipid DOTMA with no surface ligand were considered to enhance transfection or had higher % cells transfected were considered to enhance transfection. Peptides that gave greater than 2-fold enhancement are noted in bold and could be further optimized by adding different transfection enhancers or could be used with different cationic lipids or polymers.
(§4) Tables 2-7, below, provide the results of the transfection enhancements with the various cell types, while Table 8 lists the peptides that were determined by visual inspection to enhance the transfection of the denoted cell lines over the lipid DOTMA.

[2] = test system: HeLa Cells; test: as above; type: cell-based; details: DOTMA/DOPE + peptide linked to R12 or K16; EF1Alpha eGFP plasmid; 42 hours
Experimental: as §1, §2, §3, §4

[3] = test system: NL-1 iPS Cells; test: as above; type: cell-based; details: DOTMA/DOPE + peptide linked to R12 or K16; EF1Alpha eGFP plasmid; 42 hours
Experimental: as §1, §2, §3, §4

[4] = test system: HuVec Cells; test: as above; type: cell-based; details: DOTMA/DOPE + peptide linked to R12 or K16; EF1Alpha eGFP plasmid; 42 hours
Experimental: as §1, §2, §3, §4

[5] = test system: Human Fibroblast Cells; test: as above; type: cell-based; details: DOTMA/DOPE + peptide linked to R12 or K16; EF1Alpha eGFP plasmid; 42 hours
Experimental: as §1, §2, §3, §4

[6] = test system: some examined cell types; test: Summary of Example 1: transfection expression and % cells transfected over the no peptide control; type: cell-based; details: on some examined cell types
Experimental: as §1, §2, §3

[7] = test system: C2C12 Cells; test: GFP plasmid transfection with DOTMA/DOPE plus surface ligand peptide, fluorescent plate reader (Example 1); type: cell-based, mouse; details: DOTMA/DOPE + peptide linked to R12 or K16; EF1Alpha eGFP plasmid; 42 hours
Experimental: as §1, §2, §3, §4

[8] = test system: HeLa Cells; test: GFP transfection with DOTMA/SEQ ID NO: 72 (fusogenic peptide)/peptide compared with Lipofectamine 2000; type: cell-based
Experimental: as §1, §2
The fusogenic peptide was added to the DOMTA/peptide formulation to achieve a final concentration of 0.1 mg/mL to see if transfection reagents were further enhanced by the addition of a fusogenic peptide and could provide higher transfection efficiency into HeLa cells and expression than the commercially available Lipofectamine 2000.

[9] = 0.1 μL of DOTMA/SEQ ID NO: 72/Peptide in well of a 96 well plate
[10] = 0.2 μL of DOTMA/SEQ ID NO: 72/Peptide in well of a 96 well plate
[11] = 0.3 μL of DOTMA/SEQ ID NO: 72/Peptide in well of a 96 well plate
[12] = 0.4 μL of DOTMA/SEQ ID NO: 72/Peptide in well of a 96 well plate

Substance	Relative Fluorescence of Transfection of Jurkat Cells (RF) [1]	Relative Fluorescence of Transfection of HeLa Cells (RF) [2]	Relative Fluorescence of Transfection of NL-1 iPS Cells (RF) [3]	Relative Fluorescence of Transfection of HuVec Cells (RF) [4]	Relative Fluorescence of Transfection of Human Fibroblast Cells (RF) [5]	transfection expression and % cells transfected over the no peptide control [6]	Relative Fluorescence of Transfection of C2C12 Cells (RF) [7]	Relative Fluorescence DOTMA/SEQ ID NO: 72/Peptide, HeLa Cells (RF) [8, 9]	Relative Fluorescence DOTMA/SEQ ID NO: 72/Peptide, HeLa Cells (RF) [8, 10]	Relative Fluorescence DOTMA/SEQ ID NO: 72/Peptide, HeLa Cells (RF) [8, 11]	Relative Fluorescence DOTMA/SEQ ID NO: 72/Peptide, HeLa Cells (RF) [8, 12]
360 (GDLGRPGRKGRPGPP) [compound 360]	16607	8516	27572	24042	5347	increased transfection expression and the % cells transfected	2090	9946	11168	10381	8995
344 (KGHRGF) [compound 344]	10160	14415	10895	11867	12704	increased transfection expression and the % cells transfected	1678	13315	16387	12564	12511
219 (RKRLQVQLSIRT) [compound 219]	10762	13721	5770	6237	7389	increased transfection expression and the % cells transfected	1346	12135	13841	13531	11712
353 (KKQRFRHRNRKGYRSQ) [compound 353]	11107	29119	9248	8772	8653	increased transfection expression and the % cells transfected	4291	36315	44772	36882	25802
347 (DLGTAGSCLRKFSTM) [compound 347]	17720	22527	21865	20728	9255	increased transfection expression and the % cells transfected	4457	23188	21493	16814	14140
357 (SETTVKYIFRLHE) [compound 357]	2256	22679	15624	6009	7167	increased transfection expression and the % cells transfected	4506	7718	11798	9229	9107
328 (NWRHISYITRFG) [compound 328]	4770	32528	8611	3614	5641	increased transfection expression and the % cells transfected	5507	11037	12229	10801	10951
326 (RLVSYSGVLFFLK) [compound 326]	3018	18946	9239	4932	3070	increased transfection expression and the % cells transfected	8553	6887	9487	10330	9227
